Data on 14 molecules can be found in ChEMBL document CHEMBL4665678, “Overview of AKR1C3: Inhibitor Achievements and Disease Insights” (J Med Chem, 2020).

Experiment [1] deals with T1, Aldo-keto reductase family 1 member C3 (Homo sapiens, UniProt P42330).
T1 sequence (P42330 whole entry): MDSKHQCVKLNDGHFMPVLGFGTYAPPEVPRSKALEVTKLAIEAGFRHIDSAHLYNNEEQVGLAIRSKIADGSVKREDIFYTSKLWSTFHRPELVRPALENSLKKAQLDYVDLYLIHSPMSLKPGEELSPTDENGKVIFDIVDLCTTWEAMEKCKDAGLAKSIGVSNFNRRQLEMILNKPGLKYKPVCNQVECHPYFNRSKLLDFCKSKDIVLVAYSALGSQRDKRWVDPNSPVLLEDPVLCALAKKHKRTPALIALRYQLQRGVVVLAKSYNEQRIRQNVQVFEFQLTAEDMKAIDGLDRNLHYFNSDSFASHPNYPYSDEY
Kind of experiment: Inhibition of human AKR1C3 expressed in Escherichia coli incubated for 30 mins in presence of NADPH regeneration system by UHPLC analysis. As to conditions: for Ki: read-out: Ki.

Experiment [2] has as its target T2, Aldo-keto reductase family 1 member C2 (Homo sapiens, UniProt P52895).
T2 sequence (P52895 whole entry): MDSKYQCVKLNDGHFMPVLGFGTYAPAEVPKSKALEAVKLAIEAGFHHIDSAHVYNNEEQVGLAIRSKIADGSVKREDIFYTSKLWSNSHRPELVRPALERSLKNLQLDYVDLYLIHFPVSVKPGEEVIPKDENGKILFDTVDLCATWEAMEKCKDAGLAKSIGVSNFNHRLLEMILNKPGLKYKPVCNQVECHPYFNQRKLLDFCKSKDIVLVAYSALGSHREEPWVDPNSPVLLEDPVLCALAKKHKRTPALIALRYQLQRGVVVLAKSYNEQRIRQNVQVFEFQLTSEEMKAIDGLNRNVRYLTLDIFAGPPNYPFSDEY
Kind of experiment: Inhibition of human AKR1C2 using S-tetralol as substrate in presence of NADP by fluorescence method.

For experiment [3], the target named is T3, Aldo-keto reductase family 1 member C1 (Homo sapiens, UniProt Q04828).
T3 sequence (Q04828 whole entry): T2 sequence (P52895 whole entry) with V38T, H47R, V54L, S87C, M151V, H170R, L172Q
Kind of experiment: Inhibition of human AKR1C1 using S-tetralol as substrate in presence of NADP by fluorescence method.

Experiment [4] has as its target T4, Aldo-keto reductase family 1 member C4 (Homo sapiens, UniProt P17516).
T4 sequence (P17516 whole entry): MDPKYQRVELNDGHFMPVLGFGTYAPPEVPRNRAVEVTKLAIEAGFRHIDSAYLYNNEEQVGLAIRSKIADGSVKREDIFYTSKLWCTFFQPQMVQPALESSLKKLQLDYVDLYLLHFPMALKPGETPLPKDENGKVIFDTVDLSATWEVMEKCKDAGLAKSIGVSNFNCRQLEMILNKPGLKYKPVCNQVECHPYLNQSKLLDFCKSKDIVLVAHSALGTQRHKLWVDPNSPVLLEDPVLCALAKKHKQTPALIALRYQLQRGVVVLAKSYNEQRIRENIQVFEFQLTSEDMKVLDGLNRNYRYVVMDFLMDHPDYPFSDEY
In words: Inhibition of human AKR1C4 using S-tetralol as substrate in presence of NADP by fluorescence method.

The target of experiment [5] is T1, Aldo-keto reductase family 1 member C3. In words: Inhibition of human AKR1C3 using S-tetralol as substrate in presence of NADP by fluorescence method.
Experiment [6] has the same target. In words: Inhibition of human AKR1C3 expressed in Escherichia coli BL21(DE3) pLysS cells using S-tetralol as substrate.
For experiment [7] the target is unchanged. In words: Inhibition of human AKR1C3 expressed in Escherichia coli BL21(DE3) pLysS cells using 9,10-phenanthrenequinone as substrate.
In experiment [8] the target is T5, Androgen receptor (Homo sapiens, UniProt P10275).
T5 sequence (P10275 whole entry): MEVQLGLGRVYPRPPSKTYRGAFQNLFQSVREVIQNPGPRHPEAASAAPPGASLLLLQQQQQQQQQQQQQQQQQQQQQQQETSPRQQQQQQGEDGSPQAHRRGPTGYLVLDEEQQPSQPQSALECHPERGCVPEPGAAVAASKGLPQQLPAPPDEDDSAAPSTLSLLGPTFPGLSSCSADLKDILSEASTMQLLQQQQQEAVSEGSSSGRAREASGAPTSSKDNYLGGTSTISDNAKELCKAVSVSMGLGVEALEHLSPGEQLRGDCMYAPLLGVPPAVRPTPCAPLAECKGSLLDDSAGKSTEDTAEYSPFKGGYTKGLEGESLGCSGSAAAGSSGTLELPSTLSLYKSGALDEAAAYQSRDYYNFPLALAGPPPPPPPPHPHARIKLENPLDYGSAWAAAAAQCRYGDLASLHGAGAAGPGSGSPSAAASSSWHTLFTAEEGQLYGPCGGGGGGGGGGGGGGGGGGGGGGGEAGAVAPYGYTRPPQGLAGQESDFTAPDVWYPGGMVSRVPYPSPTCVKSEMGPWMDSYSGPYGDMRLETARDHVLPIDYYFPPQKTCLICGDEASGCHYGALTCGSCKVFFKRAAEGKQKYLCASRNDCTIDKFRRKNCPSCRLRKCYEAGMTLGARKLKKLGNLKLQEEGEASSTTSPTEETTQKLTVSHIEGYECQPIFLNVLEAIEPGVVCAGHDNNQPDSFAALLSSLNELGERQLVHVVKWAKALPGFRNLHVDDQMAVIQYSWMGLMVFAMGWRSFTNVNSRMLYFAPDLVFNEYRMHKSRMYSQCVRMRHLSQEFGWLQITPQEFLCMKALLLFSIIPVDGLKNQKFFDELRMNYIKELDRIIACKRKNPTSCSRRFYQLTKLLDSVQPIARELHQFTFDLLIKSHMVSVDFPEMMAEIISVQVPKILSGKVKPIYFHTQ
Kind of experiment: Displacement of [3H]-R1881 from androgen receptor (unknown origin) expressed in human HeLa cells harboring AR3A-PSA-(ARE)4-Luc13 incubated for 2 hrs by scintillation counting. Type of experiment: cell-based. For orientation: Loss of bound radioactivity is the signal in a displacement assay; it reports binding, not function.

Experiment [9] has as its target T5, Androgen receptor. Kind of experiment: Antagonist activity at androgen receptor (unknown origin) expressed in human HeLa cells harboring AR3A-PSA-(ARE)4-Luc13 in presence of DHT by BrightGlo luciferase assay. Type of experiment: cell-based.
The target of experiment [10] is T2, Aldo-keto reductase family 1 member C2. In words: Inhibition of N-terminal His-tagged human AKR1C2 expressed in Escherichia coli BL21 ([…] Plus) competent cells using 9,10 -Phenanthrenequinone as substrate in presence of NADPH by fluorescence method.
Experiment [11] has as its target Aldo-keto reductase family 1 member B1 (Homo sapiens, UniProt P15121). Kind of experiment: Inhibition of N-terminal His-tagged human AKR1B1 expressed in Escherichia coli BL21 ([…] Plus) competent cells using D,L-glyceraldehyde as substrate in presence of NADPH by fluorescence method.
Experiment [12] deals with Aldo-keto reductase family 1 member B10 (Homo sapiens, UniProt O60218). In words: Inhibition of N-terminal His-tagged human AKR1B10 expressed in Escherichia coli BL21 ([…] Plus) competent cells using […] as substrate in presence of NADPH by fluorescence method.
The target of experiment [13] is T6, Aldo-keto reductase family 1 member A1 (Homo sapiens, UniProt P14550).
T6 sequence (P14550 whole entry): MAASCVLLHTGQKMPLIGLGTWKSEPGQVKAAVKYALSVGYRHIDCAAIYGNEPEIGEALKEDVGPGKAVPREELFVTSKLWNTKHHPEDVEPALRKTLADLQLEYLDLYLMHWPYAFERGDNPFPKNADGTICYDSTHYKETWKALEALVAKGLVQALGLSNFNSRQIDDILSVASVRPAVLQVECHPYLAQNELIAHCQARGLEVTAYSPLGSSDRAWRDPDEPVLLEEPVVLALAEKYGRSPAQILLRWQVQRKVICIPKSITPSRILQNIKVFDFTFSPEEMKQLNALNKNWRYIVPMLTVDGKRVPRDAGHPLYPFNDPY
In words: Inhibition of N-terminal His-tagged human AKR1A1 expressed in Escherichia coli BL21 ([…] Plus) competent cells using D,L-glyceraldehyde as substrate in presence of NADPH by fluorescence method.

The target in experiment [14] is T1, Aldo-keto reductase family 1 member C3. Kind of experiment: Inhibition of N-terminal His-tagged human AKR1C3 expressed in Escherichia coli BL21 ([…] Plus) competent cells using 9,10 -Phenanthrenequinone as substrate in presence of NADPH by fluorescence method.
In experiment [15] the target is T4, Aldo-keto reductase family 1 member C4. Kind of experiment: Inhibition of N-terminal His-tagged human AKR1C4 expressed in Escherichia coli BL21 ([…] Plus) competent cells using 9,10 -Phenanthrenequinone as substrate in presence of NADPH by fluorescence method.
The target in experiment [16] is T3, Aldo-keto reductase family 1 member C1. In words: Inhibition of N-terminal His-tagged human AKR1C1 expressed in Escherichia coli BL21 ([…] Plus) competent cells using 9,10 -Phenanthrenequinone as substrate in presence of NADPH by fluorescence method.
The target in experiment [17] is T2, Aldo-keto reductase family 1 member C2. In words: Inhibition of N-terminal His-tagged human AKR1C2 expressed in Escherichia coli BL21 ([…] Plus) competent cells using 9,10-phenanthrenequinone as substrate in presence of NADPH.
In experiment [18] the target is T1, Aldo-keto reductase family 1 member C3. Kind of experiment: Inhibition of N-terminal His-tagged human AKR1C3 expressed in Escherichia coli BL21([…] Plus) competent cells using 9,10-phenanthrenequinone as substrate in presence of NADPH.
For experiment [19], the target named is T3, Aldo-keto reductase family 1 member C1. Kind of experiment: Inhibition of N-terminal His-tagged human AKR1C1 expressed in Escherichia coli BL21 ([…] Plus) competent cells using 9,10-phenanthrenequinone as substrate in presence of NADPH.
Experiment [20] shares this target. In words: Inhibition of AKR1C1 (unknown origin) using 9,10-phenanthrenequinone as substrate.
Experiment [21] has as its target T2, Aldo-keto reductase family 1 member C2. Kind of experiment: Inhibition of AKR1C2 (unknown origin) using 9,10-phenanthrenequinone as substrate.

Substitutions are numbered along the chain they refer to. Some results are limits rather than exact numbers.

Sequence of Aldo-keto reductase family 1 member B10 (O60218 whole entry): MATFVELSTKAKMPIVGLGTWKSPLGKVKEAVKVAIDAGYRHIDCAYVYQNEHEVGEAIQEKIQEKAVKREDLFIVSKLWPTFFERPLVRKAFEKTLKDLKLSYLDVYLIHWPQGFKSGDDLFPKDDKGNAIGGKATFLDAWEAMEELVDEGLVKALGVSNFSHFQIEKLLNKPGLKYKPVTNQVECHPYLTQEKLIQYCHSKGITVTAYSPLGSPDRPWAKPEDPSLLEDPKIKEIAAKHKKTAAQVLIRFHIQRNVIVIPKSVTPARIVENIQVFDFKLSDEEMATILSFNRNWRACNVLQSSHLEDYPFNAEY

For orientation: IC50 means the midpoint of a concentration-inhibition curve. What is called Ki is the dissociation constant of the complex between target and ligand, obtained from inhibition or displacement. For the molecule `CC(C)C(CO)Nc1nc(Nc2cccc(Cl)c2)c2ncn(C(C)C)c2n1` (stereo not given), in experiment [1], the IC50 was found to be 6.58 µM and the Ki was 5.5 µM.

Regarding `O=C(O)c1cccc(Nc2ccc([N+](=O)[O-])c3ccccc23)c1`, the IC50 in experiment [2] was determined as 24.7 µM; in experiment [3], 41.3 µM; in [4], 30.6 µM; in [5] it was 0.086 µM.

Regarding `CCCCC/C=C/C/C=C/C/C=C/C/C=C/CCCC(=O)O`, the IC50 came out at 0.69 µM in [6] and 0.84 µM in experiment [7].

Consider `Oc1ccc2c(O)ncc(-c3cc(F)c(F)c(F)c3)c2c1`, for which the IC50 in [8] amounted to 80 µM; in [9], 2.1 µM.

Take `O=C(O)c1cccc(Nc2ccc([N+](=O)[O-])c3c([N+](=O)[O-])cccc23)c1`: the IC50 in experiment [2] amounted to 15.6 µM; in [3] it was 15.4 µM; in [4], 5.34 µM; in experiment [5], 0.053 µM.

As for `CC(=O)c1ccc(Nc2cccc(C(=O)O)c2)c2ccccc12`, the IC50 in [2] worked out at 19.5 µM; in experiment [3] it was 50 µM; in experiment [4], 17.7 µM; in experiment [5], 0.082 µM.

For the molecule `CCC(CO)Nc1nc(NCc2ccccc2)c2ncn(C(C)C)c2n1` (stereo not drawn) [(RS)-ROSCOVITINE], in experiment [1], the IC50 worked out at 2.15 µM and the Ki came out at 1.4 µM.

As for `COc1ccc2[nH]c(C(=O)N3CCC(CC(C)(C)O)CC3)cc2c1` [ASP-9521], the IC50 in [9] turned out to be 300 µM.

Regarding `O=C(/C=C/c1ccc(O)c(O)c1)OCCc1ccccc1` [CAFFEIC ACID PHENETHYL ESTER], the IC50 in [10] is 25.8 µM; in [11] it was 3.56 µM; in experiment [12], 0.39 µM; in [13], above 50 µM; in [14], 3.71 µM; in experiment [15] it was 8.25 µM. Moreover, in experiment [16], the IC50 was determined as 29.2 µM.

In the case of `Cc1ccc(S(=O)(=O)NC(=O)NN2CC3CCCC3C2)cc1` (stereo not given) [GLICLAZIDE], the IC50 is above 1000 µM in experiment [17], 19.6 µM in experiment [18] and above 300 µM in experiment [19].

`CCC1=C(C)CN(C(=O)NCCc2ccc(S(=O)(=O)NC(=O)N[C@H]3CC[C@H](C)CC3)cc2)C1=O` [GLIMEPIRIDE]: the IC50 in [17] was above 50 µM; in experiment [18], 0.85 µM; in [19] it was 6.86 µM.

`COc1ccc2c(c1)c(CC(=O)O)c(C)n2C(=O)c1ccc(Cl)cc1` [INDOMETHACIN]: the IC50 in experiment [20] was found to be 96 µM; in experiment [21] it was 50 µM.

`CCCCC/C=C\C/C=C\CCCCCCCC(=O)O` [LINOLEIC ACID]: the IC50 in experiment [6] and in [7] was 0.69 µM each time.

`CCCCCCCCOC(=O)c1cc(O)c(O)c(O)c1` [OCTYL_GALLATE]: the IC50 was 9.28 µM in experiment [10]; above 100 µM in experiment [11]; above 100 µM in experiment [12]; above 100 µM in experiment [13]; 2.56 µM in experiment [14]; 4.04 µM in [15]. In addition, the IC50 in experiment [16] stood at 5.48 µM.
